The text below walks through data of US20120142771A1, “BIPHENYLACETAMIDE DERIVATIVE” (Dainippon Sumitomo Pharma Co., Ltd., priority 2008, published 2012).

SMILES strings stand for the structures. Read-outs that look alike come from different tables or passages of the source.

Experiment [1] has as its system maximum electroshock seizure (MES) model. The experiment can be described thus: Maximum electroshock seizure (MES) model test. The class given is in vivo, mice. Particulars: for responders at 100 mg/kg / responders at 50 mg/kg: Mus musculus, po, 1 h, inhibition of hind limb extension. An excerpt: In order to evaluate the antiepileptic activity of each drug, maximum electroshock seizure (MES) model, subcutaneously pentetrazol-injected model (scPTZ), and amygdala kindling model in rats were used because they show a good clinical prediction.
Test 1: Test with Maximum Electroshock Seizure (MES) Model
Test 1 evaluates the anticonvulsant action of medicaments. Animal model used herein represents the clinical phenotypes of generalized tonic seizure and secondarily generalized tonic-clonic seizure. Test compounds (50 or 100 mg/kg) were orally administered to Slc: ddY male mice (3 mice in each group, body weight 20-30 g). After an hour of administration, their corneas were electrically stimulated (60 Hz, 25 mA, 0.2 second) to induce tonic convulsion (tonic extensor in their hind limbs). […] To the control mice, 0.5% tragacanth solution or 0.5% methylcellulose solution was administered.

For experiment [2], the system named is subcutaneously pentetrazol-injected model (scPTZ). The experiment can be described thus: Subcutaneously pentetrazol-injected model (scPTZ) test. As to conditions: for responders at 50 mg/kg / responders at 100 mg/kg: Mus musculus, po, 1 h. The class given is in vivo, mice. An excerpt: In order to evaluate the antiepileptic activity of each drug, maximum electroshock seizure (MES) model, subcutaneously pentetrazol-injected model (scPTZ), and amygdala kindling model in rats were used because they show a good clinical prediction. […] Test with Subcutaneously Pentetrazol-Injected Model (scPTZ) Similar to Test 1, Test 2 evaluates the anticonvulsant action of medicaments. However, unlike Test 1, animal model used herein represents the clinical phenotypes of generalized absence seizure and myoclonic seizure. Test compounds (50 or 100 mg/kg) were orally administered to Slc: ddY male mice (3 mice in each group, body weight 20-30 g). After an hour, pentetrazol (85 mg/kg) was subcutaneously administered. […] To the control mice, 0.5% tragacanth solution or 0.5% methylcellulose solution was administered.

Setting [3] is: 100 mg/kg oral, Slc: ddY male mice, 3 per group, electrical stimulation 1 hour after administration, read-out: MES (positive number/tested number) (converted).
Where [4] appears, read: 50 mg/kg oral, Slc: ddY male mice, 3 per group, pentetrazol 85 mg/kg s.c. after 1 hour, observed 30 minutes for clonic convulsion, read-out: scPTZ (positive number/tested number) (converted).
Where [5] appears, read: 100 mg/kg oral, Slc: ddY male mice, 3 per group, pentetrazol 85 mg/kg s.c. after 1 hour, observed 30 minutes for clonic convulsion, read-out: scPTZ (positive number/tested number) (converted).
[6] abbreviates: 50 mg/kg oral, Slc: ddY male mice, 3 per group, electrical stimulation 1 hour after administration, read-out: MES (positive number/tested number) (converted).

For the compound `Cc1ccc(-c2ccccc2)c(CC(N)=O)c1` [Example 111], the responders at 100 mg/kg in experiment [1] (setting [3]) is 0%; in experiment [2] (setting [5]) it was 66.7%. Moreover, the responders at 50 mg/kg in experiment [2] (setting [4]) is 33.3%.

`NC(=O)C(O)c1cc(F)ccc1-c1ccccc1F` (stereo not drawn) [Example 187]: the responders at 100 mg/kg in experiment [1] (setting [3]) is 100%; in experiment [2] (setting [5]), 0%.

As for `NC(=O)Cc1ccccc1-c1ccc(F)c(F)c1` [Example 21, 2-(3′,4′-difluorobiphenyl-2-yl)acetamide], the values for the responders at 50 mg/kg in experiment [1] (setting [6]) and in experiment [2] (setting [4]) were 33.3% and 0%, respectively. Also, the responders at 100 mg/kg in experiment [1] (setting [3]) and in experiment [2] (setting [5]) was 100% in each case.

As for `NC(=O)Cc1cc(Cl)ccc1-c1ccccc1` [Example 35], the responders at 50 mg/kg in experiment [1] (setting [6]) was 0%. In addition, the responders at 100 mg/kg was 66.7% in experiment [1] (setting [3]) and 0% in experiment [2] (setting [5]).

Regarding `NC(=O)Cc1cc(F)ccc1-c1ccc(C(F)(F)F)cc1` [Example 135], the responders at 100 mg/kg is 100% in experiment [1] (setting [3]) and 0% in experiment [2] (setting [5]).

Take `NC(=O)Cc1ccccc1-c1ccc(Cl)cc1` [Example 10]: in experiment [1] (setting [6]), the responders at 50 mg/kg was 33.3%. Further, the responders at 100 mg/kg was 100% in experiment [1] (setting [3]) and 33.3% in experiment [2] (setting [5]).

`COC(C(N)=O)c1ccccc1-c1cccc(F)c1` (stereo not drawn) [Example 199]: the responders at 50 mg/kg in experiment [1] (setting [6]) was 33.3%. In addition, the responders at 100 mg/kg in experiment [1] (setting [3]) is 100%; in experiment [2] (setting [5]), 33.3%.

On to `NC(=O)Cc1ccccc1-c1cc(C(F)(F)F)cc(C(F)(F)F)c1` [Example 72], for which the responders at 100 mg/kg was 66.7% in experiment [1] (setting [3]) and 0% in experiment [2] (setting [5]).

Take `COC(C(N)=O)c1ccccc1-c1cccc(Cl)c1` (stereo not drawn) [Example 206, 2-(3′-chlorobiphenyl-2-yl)-2-methoxyacetamide]: the responders at 50 mg/kg in experiment [1] (setting [6]) was 33.3%; in experiment [2] (setting [4]), 0%. Further, the responders at 100 mg/kg in experiment [1] (setting [3]) and in experiment [2] (setting [5]) was 66.7% throughout.

For `CNC(=O)Cc1ccccc1-c1ccc(Br)cc1` [Example 53, 2-(4′-Bromobiphenyl-2-yl)-N-methylacetamide], in experiment [1] (setting [6]), the responders at 50 mg/kg was 66.7%. The responders at 100 mg/kg is 100% in experiment [1] (setting [3]) and 0% in experiment [2] (setting [5]).

As to `NC(=O)Cc1ccccc1-c1cccc(C(F)(F)F)c1` [Example 4, 2-[3′-(trifluoromethyl)biphenyl-2-yl]acetamide], the responders at 50 mg/kg in experiment [1] (setting [6]) and in experiment [2] (setting [4]) was 0% throughout. The responders at 100 mg/kg in experiment [1] (setting [3]) and in experiment [2] (setting [5]) was 66.7% throughout.

Consider `NC(=O)Cc1ccccc1-c1cc(F)c(F)c(F)c1` [Example 90, 2-(3′,4′,5′-trifluorobiphenyl-2-yl)acetamide], for which the responders at 50 mg/kg in experiment [1] (setting [6]) and in experiment [2] (setting [4]) was 66.7% throughout. Moreover, the responders at 100 mg/kg in experiment [1] (setting [3]) and in experiment [2] (setting [5]) was 66.7% each time. In addition, in experiment [1] (mice, oral 50 or 100 mg/kg, 1 hour after administration), the “anticonvulsant action in maximum electroshock seizure (MES) model test” value is reported as “anticonvulsant action was observed”. The “anticonvulsant action in subcutaneously pentetrazol-injected model (scPTZ) test” value in experiment [2] (mice, oral 50 or 100 mg/kg, pentetrazol 85 mg/kg s.c. after 1 hour) is on record as “anticonvulsant action was observed”.

On to `NC(=O)C(O)c1ccc(F)cc1-c1cccc(F)c1` (stereo not drawn) [Example 182, 2-(3′,5-difluorobiphenyl-2-yl)-2-hydroxyacetamide], for which the results for the responders at 50 mg/kg in experiment [1] (setting [6]) and in experiment [2] (setting [4]) were 33.3% and 0%, respectively. Moreover, the responders at 100 mg/kg in experiment [1] (setting [3]) and in experiment [2] (setting [5]) was 100% throughout.

As for `CNC(=O)Cc1cc(C(F)(F)F)ccc1-c1ccccc1` [Example 117], the values for the responders at 100 mg/kg in experiment [1] (setting [3]) and in experiment [2] (setting [5]) were 0% and 66.7%, respectively. Moreover, the responders at 50 mg/kg in experiment [2] (setting [4]) was 33.3%.

With `NC(=O)Cc1cc(F)ccc1-c1ccc(F)cc1` [Example 114, 2-(4,4′-difluorobiphenyl-2-yl)acetamide], the responders at 50 mg/kg in experiment [1] (setting [6]) is 100%. In addition, the results for the responders at 100 mg/kg in experiment [1] (setting [3]) and in experiment [2] (setting [5]) were 100% and 33.3%, respectively.

Consider `CNC(=O)Cc1cc(Cl)ccc1-c1ccccc1` [Example 36], for which, in experiment [1] (setting [6]), the responders at 50 mg/kg is 0%. The responders at 100 mg/kg is 100% in experiment [1] (setting [3]) and 33.3% in experiment [2] (setting [5]).

Regarding `CNC(=O)Cc1c(F)cccc1-c1ccccc1` [Example 119, 2-(3-fluorobiphenyl-2-yl)-N-methylacetamide], the responders at 50 mg/kg in experiment [1] (setting [6]) was 100%. Also, the responders at 100 mg/kg in experiment [1] (setting [3]) is 100%; in experiment [2] (setting [5]), 0%.

In the case of `NC(=O)Cc1ccccc1-c1cc(F)c(F)cc1F` [Example 69], the responders at 100 mg/kg is 33.3% in experiment [1] (setting [3]) and 66.7% in experiment [2] (setting [5]).

Take `CNC(=O)Cc1ccc(Cl)cc1-c1ccccc1` [Example 124, 2-(5-chlorobiphenyl-2-yl)-N-methylacetamide]: the responders at 50 mg/kg in experiment [1] (setting [6]) and in experiment [2] (setting [4]) was 0% in each case. Further, the responders at 100 mg/kg in experiment [1] (setting [3]) and in experiment [2] (setting [5]) was 100% each time.

As for `NC(=O)C(F)c1ccccc1-c1cccc(Cl)c1` (stereo not drawn) [Example 167, 2-(3′-chlorobiphenyl-2-yl)-2-fluoroacetamide], the responders at 50 mg/kg in experiment [1] (read-out: MES (positive number/tested number), 50 mg/kg oral, Slc: ddY male mice, 3 per group, electrical stimulation 1 hour after administration) was 33.3%; in experiment [2] (read-out: scPTZ (positive number/tested number), 50 mg/kg oral, Slc: ddY male mice, 3 per group, pentetrazol 85 mg/kg s.c. after 1 hour, observed 30 minutes for clonic convulsion), 66.7%. The responders at 100 mg/kg in experiment [1] (read-out: MES (positive number/tested number), 100 mg/kg oral, Slc: ddY male mice, 3 per group, electrical stimulation 1 hour after administration) was 100%; in experiment [2] (read-out: scPTZ (positive number/tested number), 100 mg/kg oral, Slc: ddY male mice, 3 per group, pentetrazol 85 mg/kg s.c. after 1 hour, observed 30 minutes for clonic convulsion), 100%.

In the case of `Cc1cc(Cl)cc(-c2ccccc2CC(N)=O)c1F` [Example 81], the responders at 100 mg/kg in experiment [1] (setting [3]) is 33.3%; in experiment [2] (setting [5]), 0%.

`CNC(=O)C(F)c1ccccc1-c1ccccc1` (stereo not drawn) [Example 163]: the responders at 50 mg/kg in experiment [1] (setting [6]) is 33.3%. For the same compound, the values for the responders at 100 mg/kg in experiment [1] (setting [3]) and in experiment [2] (setting [5]) were 100% and 0%, respectively.

With `NC(=O)Cc1ccccc1-c1ccc(Cl)cc1F` [Example 68, 2-(4′-chloro-2′-fluorobiphenyl-2-yl)acetamide], the responders at 50 mg/kg in experiment [1] (setting [6]) and in experiment [2] (setting [4]) was 0% each time. Moreover, the responders at 100 mg/kg is 100% in experiment [1] (setting [3]) and 66.7% in experiment [2] (setting [5]).

On to `NC(=O)C(F)(F)c1ccccc1-c1cccc(F)c1` [Example 170, 2,2-difluoro-2-(3′-fluorobiphenyl-2-yl)acetamide], for which the responders at 50 mg/kg in experiment [1] (setting [6]) is 0%; in experiment [2] (setting [4]), 33.3%. In addition, the responders at 100 mg/kg in experiment [1] (setting [3]) is 100%; in experiment [2] (setting [5]), 66.7%.

In the case of `NC(=O)Cc1cc(Cl)ccc1-c1ccc(C(F)(F)F)cc1` [Example 142, 2-[4-chloro-4′-(trifluoromethyl)biphenyl-2-yl]acetamide], the responders at 50 mg/kg is 33.3% in experiment [1] (setting [6]) and 100% in experiment [2] (setting [4]). Further, the responders at 100 mg/kg in experiment [1] (setting [3]) and in experiment [2] (setting [5]) was 66.7% each time.

With `NC(=O)Cc1cc(F)ccc1-c1ccccc1` [Example 44, 2-(4-fluorobiphenyl-2-yl)acetamide], the responders at 50 mg/kg in experiment [1] (setting [6]) is 100%. In addition, the responders at 100 mg/kg in experiment [1] (setting [3]) was 100%; in experiment [2] (setting [5]), 0%.

Consider `NC(=O)Cc1ccccc1-c1ccc(F)cc1` [Example 22, 2-(4′-fluorobiphenyl-2-yl)acetamide], for which, in experiment [1] (setting [6]), the responders at 50 mg/kg is 66.7%. Besides, the responders at 100 mg/kg was 100% in experiment [1] (setting [3]) and 33.3% in experiment [2] (setting [5]).

On to `NC(=O)C(O)c1ccccc1-c1cccc(Cl)c1` (stereo not drawn) [Example 180], for which the responders at 50 mg/kg in experiment [1] (setting [6]) was 33.3%. Moreover, the responders at 100 mg/kg is 100% in experiment [1] (setting [3]) and 33.3% in experiment [2] (setting [5]).

With `CNC(=O)Cc1ccccc1-c1cccc(C(F)(F)F)c1` [Example 5, N-methyl-2-[3′-(trifluoromethyl)biphenyl-2-yl]acetamide], the responders at 50 mg/kg in experiment [1] (setting [6]) was 0%; in experiment [2] (setting [4]), 33.3%. For the same compound, the values for the responders at 100 mg/kg in experiment [1] (setting [3]) and in experiment [2] (setting [5]) were 100% and 66.7%, respectively.

On to `NC(=O)Cc1ccccc1-c1cc(F)cc(F)c1` [Example 153, 2-(3′,5′-difluorobiphenyl-2-yl)acetamide], for which the responders at 50 mg/kg in experiment [1] (setting [6]) and in experiment [2] (setting [4]) was 0% each time. In addition, the responders at 100 mg/kg was 66.7% in experiment [1] (setting [3]) and 100% in experiment [2] (setting [5]).
